Experimental data from PubChem BioAssay (NCI).
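Test compounds were applied to cells in 96-well plates for 48 hours at 5 doses. TGI: concentration producing complete growth inhibition.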

Tests used:
Assay in all cases: DTP human tumour cell line panel, 48 h
HT29 colon = test system: HT29 colon
OVCAR-5 ovarian = test system: OVCAR-5 ovarian
NCI-H23 lung = test system: NCI-H23 lung
T-47D breast = test system: T-47D breast
CAKI-1 renal = test system: CAKI-1 renal
SF-539 CNS = test system: SF-539 CNS
K-562 leukemia = test system: K-562 leukemia
U251 CNS = test system: U251 CNS
MALME-3M melanoma = test system: MALME-3M melanoma
NCI/ADR-RES ovarian = test system: NCI/ADR-RES ovarian
UACC-62 melanoma = test system: UACC-62 melanoma
ACHN renal = test system: ACHN renal
KM12 colon = test system: KM12 colon
SK-MEL-28 melanoma = test system: SK-MEL-28 melanoma
A549 NSCLC = test system: A549 NSCLC
SR leukemia = test system: SR leukemia
OVCAR-8 ovarian = test system: OVCAR-8 ovarian
HS 578T breast = test system: HS 578T breast
UO-31 renal = test system: UO-31 renal
HOP-62 NSCLC = test system: HOP-62 NSCLC
786-0 renal = test system: 786-0 renal
A498 renal = test system: A498 renal
SNB-19 CNS = test system: SNB-19 CNS
UACC-257 melanoma = test system: UACC-257 melanoma
OVCAR-4 ovarian = test system: OVCAR-4 ovarian
COLO 205 colon = test system: COLO 205 colon
SW-620 colon = test system: SW-620 colon
TK-10 renal = test system: TK-10 renal
SNB-75 CNS = test system: SNB-75 CNS
M14 melanoma = test system: M14 melanoma
OVCAR-3 ovarian = test system: OVCAR-3 ovarian
SK-OV-3 ovarian = test system: SK-OV-3 ovarian
EKVX NSCLC = test system: EKVX NSCLC
BT-549 breast = test system: BT-549 breast
HOP-92 NSCLC = test system: HOP-92 NSCLC
SF-295 CNS = test system: SF-295 CNS
DU-145 prostate = test system: DU-145 prostate
HCT-116 colon = test system: HCT-116 colon
MDA-MB-435 = test system: MDA-MB-435
MDA-MB-231 breast = test system: MDA-MB-231 breast
RXF 393 renal = test system: RXF 393 renal
HCC-2998 colon = test system: HCC-2998 colon
HCT-15 colon = test system: HCT-15 colon
MOLT-4 leukemia = test system: MOLT-4 leukemia
MDA-N = test system: MDA-N
PC-3 prostate = test system: PC-3 prostate
NCI-H522 lung = test system: NCI-H522 lung
SF-268 CNS = test system: SF-268 CNS
CCRF-CEM leukemia = test system: CCRF-CEM leukemia
NCI-H226 lung = test system: NCI-H226 lung
SN12C renal = test system: SN12C renal
SK-MEL-5 melanoma = test system: SK-MEL-5 melanoma
MCF7 breast = test system: MCF7 breast
IGROV1 ovarian = test system: IGROV1 ovarian
LOX IMVI melanoma = test system: LOX IMVI melanoma
HL-60(TB) leukemia = test system: HL-60(TB) leukemia
NCI-H460 lung = test system: NCI-H460 lung
SK-MEL-2 melanoma = test system: SK-MEL-2 melanoma
RPMI-8226 leukemia = test system: RPMI-8226 leukemia

**Q.** Which TGI (HT29 colon) does the source give for `CCn1c(=O)c2c3ccc(OC)cc3[nH]c2c2ccc(OC)cc21` here?
**A.** > 100 µM

**Q.** What about the TGI (OVCAR-5 ovarian) of the same molecule?
**A.** > 100 µM

**Q.** What about the TGI (NCI-H23 lung) of the same molecule?
**A.** > 100 µM

**Q.** What about the TGI (T-47D breast) of the same molecule?
**A.** > 100 µM

**Q.** And the TGI (CAKI-1 renal)?
**A.** > 100 µM

**Q.** And the TGI (SF-539 CNS)?
**A.** > 100 µM

**Q.** What about the TGI (K-562 leukemia) of the same molecule?
**A.** > 100 µM

**Q.** And the TGI (U251 CNS)?
**A.** > 100 µM

**Q.** And the TGI (MALME-3M melanoma)?
**A.** > 100 µM

**Q.** And the TGI (NCI/ADR-RES ovarian)?
**A.** > 100 µM

**Q.** And the TGI (UACC-62 melanoma)?
**A.** > 100 µM

**Q.** And the TGI (ACHN renal)?
**A.** > 100 µM

**Q.** What about the TGI (KM12 colon) of the same molecule?
**A.** > 100 µM

**Q.** What about the TGI (SK-MEL-28 melanoma) of the same molecule?
**A.** > 100 µM

**Q.** And the TGI (A549 NSCLC)?
**A.** > 100 µM

**Q.** What about the TGI (SR leukemia) of the same molecule?
**A.** > 100 µM

**Q.** What about the TGI (OVCAR-8 ovarian) of the same molecule?
**A.** > 100 µM

**Q.** And the TGI (HS 578T breast)?
**A.** > 100 µM

**Q.** And the TGI (UO-31 renal)?
**A.** > 100 µM

**Q.** And the TGI (HOP-62 NSCLC)?
**A.** > 100 µM

**Q.** What about the TGI (786-0 renal) of the same molecule?
**A.** > 100 µM

**Q.** And the TGI (A498 renal)?
**A.** > 100 µM

**Q.** What about the TGI (SNB-19 CNS) of the same molecule?
**A.** > 100 µM

**Q.** What about the TGI (UACC-257 melanoma) of the same molecule?
**A.** > 100 µM

**Q.** What about the TGI (OVCAR-4 ovarian) of the same molecule?
**A.** > 100 µM

**Q.** What about the TGI (COLO 205 colon) of the same molecule?
**A.** > 100 µM

**Q.** What about the TGI (SW-620 colon) of the same molecule?
**A.** > 100 µM

**Q.** What about the TGI (TK-10 renal) of the same molecule?
**A.** > 100 µM

**Q.** What about the TGI (SNB-75 CNS) of the same molecule?
**A.** 96.1 µM

**Q.** And the TGI (M14 melanoma)?
**A.** > 100 µM

**Q.** And the TGI (OVCAR-3 ovarian)?
**A.** > 100 µM

**Q.** What about the TGI (SK-OV-3 ovarian) of the same molecule?
**A.** > 100 µM

**Q.** And the TGI (EKVX NSCLC)?
**A.** > 100 µM

**Q.** And the TGI (BT-549 breast)?
**A.** > 100 µM

**Q.** And the TGI (HOP-92 NSCLC)?
**A.** > 100 µM

**Q.** What about the TGI (SF-295 CNS) of the same molecule?
**A.** > 100 µM

**Q.** And the TGI (DU-145 prostate)?
**A.** > 100 µM

**Q.** And the TGI (HCT-116 colon)?
**A.** > 100 µM

**Q.** What about the TGI (MDA-MB-435) of the same molecule?
**A.** > 100 µM

**Q.** What about the TGI (MDA-MB-231 breast) of the same molecule?
**A.** > 100 µM

**Q.** And the TGI (RXF 393 renal)?
**A.** > 100 µM

**Q.** What about the TGI (HCC-2998 colon) of the same molecule?
**A.** 62.7 µM

**Q.** What about the TGI (HCT-15 colon) of the same molecule?
**A.** > 100 µM

**Q.** What about the TGI (MOLT-4 leukemia) of the same molecule?
**A.** > 100 µM

**Q.** And the TGI (MDA-N)?
**A.** > 100 µM

**Q.** What about the TGI (PC-3 prostate) of the same molecule?
**A.** > 100 µM

**Q.** What about the TGI (NCI-H522 lung) of the same molecule?
**A.** > 100 µM

**Q.** And the TGI (SF-268 CNS)?
**A.** > 100 µM

**Q.** What about the TGI (CCRF-CEM leukemia) of the same molecule?
**A.** > 100 µM

**Q.** And the TGI (NCI-H226 lung)?
**A.** > 100 µM

**Q.** What about the TGI (SN12C renal) of the same molecule?
**A.** > 100 µM

**Q.** And the TGI (SK-MEL-5 melanoma)?
**A.** > 100 µM

**Q.** And the TGI (MCF7 breast)?
**A.** > 100 µM

**Q.** What about the TGI (IGROV1 ovarian) of the same molecule?
**A.** > 100 µM

**Q.** What does the source list for `OC(C1CCCCCCCCCC1)C(O)C1CCCCCCCCCC1` (stereo unspecified)?
**A.** TGI (HT29 colon): > 100 µM; TGI (OVCAR-5 ovarian): > 100 µM; TGI (NCI-H23 lung): > 100 µM; TGI (T-47D breast): > 100 µM; TGI (CAKI-1 renal): > 100 µM; TGI (SF-539 CNS): > 100 µM; TGI (K-562 leukemia): > 100 µM; TGI (U251 CNS): > 100 µM; TGI (MALME-3M melanoma): > 100 µM; TGI (NCI/ADR-RES ovarian): > 100 µM; TGI (UACC-62 melanoma): > 100 µM; TGI (ACHN renal): > 100 µM; TGI (KM12 colon): > 100 µM; TGI (SK-MEL-28 melanoma): > 100 µM; TGI (A549 NSCLC): > 100 µM; TGI (LOX IMVI melanoma): > 100 µM; TGI (SR leukemia): > 100 µM; TGI (OVCAR-8 ovarian): > 100 µM; TGI (HS 578T breast): > 100 µM; TGI (UO-31 renal): > 100 µM; TGI (HOP-62 NSCLC): > 100 µM; TGI (786-0 renal): > 100 µM; TGI (SNB-19 CNS): > 100 µM; TGI (UACC-257 melanoma): > 100 µM; TGI (OVCAR-4 ovarian): > 100 µM; TGI (COLO 205 colon): > 100 µM; TGI (SW-620 colon): > 100 µM; TGI (TK-10 renal): > 100 µM; TGI (SNB-75 CNS): > 100 µM; TGI (M14 melanoma): > 100 µM; TGI (OVCAR-3 ovarian): > 100 µM; TGI (SK-OV-3 ovarian): > 100 µM; TGI (EKVX NSCLC): > 100 µM; TGI (BT-549 breast): > 100 µM; TGI (SF-295 CNS): > 100 µM; TGI (DU-145 prostate): > 100 µM; TGI (HCT-116 colon): > 100 µM; TGI (HL-60(TB) leukemia): > 100 µM; TGI (MDA-MB-435): > 100 µM; TGI (MDA-MB-231 breast): > 100 µM; TGI (NCI-H460 lung): > 100 µM; TGI (RXF 393 renal): > 100 µM; TGI (HCC-2998 colon): > 100 µM; TGI (HCT-15 colon): > 100 µM; TGI (MOLT-4 leukemia): > 100 µM; TGI (MDA-N): > 100 µM; TGI (SK-MEL-2 melanoma): > 100 µM; TGI (PC-3 prostate): > 100 µM; TGI (NCI-H522 lung): > 100 µM; TGI (SF-268 CNS): > 100 µM; TGI (RPMI-8226 leukemia): > 100 µM; TGI (CCRF-CEM leukemia): > 100 µM; TGI (NCI-H226 lung): > 100 µM; TGI (SN12C renal): > 100 µM; TGI (SK-MEL-5 melanoma): > 100 µM; TGI (MCF7 breast): > 100 µM; TGI (IGROV1 ovarian): > 100 µM
